Results taken from US20080125424A1, “Derivatives of urea and related diamines, methods for their manufacture, and uses therefor” (priority 2006, published 2008).
Where a name gives a salt, the structure may show the parent alone.

Molecular target: T1, human parathyroid cell Ca2+ receptor (hPCaR) (Homo sapiens, UniProt P41180)
T1 construct: expressed in transfected cells
T1 sequence (P41180 20-1078): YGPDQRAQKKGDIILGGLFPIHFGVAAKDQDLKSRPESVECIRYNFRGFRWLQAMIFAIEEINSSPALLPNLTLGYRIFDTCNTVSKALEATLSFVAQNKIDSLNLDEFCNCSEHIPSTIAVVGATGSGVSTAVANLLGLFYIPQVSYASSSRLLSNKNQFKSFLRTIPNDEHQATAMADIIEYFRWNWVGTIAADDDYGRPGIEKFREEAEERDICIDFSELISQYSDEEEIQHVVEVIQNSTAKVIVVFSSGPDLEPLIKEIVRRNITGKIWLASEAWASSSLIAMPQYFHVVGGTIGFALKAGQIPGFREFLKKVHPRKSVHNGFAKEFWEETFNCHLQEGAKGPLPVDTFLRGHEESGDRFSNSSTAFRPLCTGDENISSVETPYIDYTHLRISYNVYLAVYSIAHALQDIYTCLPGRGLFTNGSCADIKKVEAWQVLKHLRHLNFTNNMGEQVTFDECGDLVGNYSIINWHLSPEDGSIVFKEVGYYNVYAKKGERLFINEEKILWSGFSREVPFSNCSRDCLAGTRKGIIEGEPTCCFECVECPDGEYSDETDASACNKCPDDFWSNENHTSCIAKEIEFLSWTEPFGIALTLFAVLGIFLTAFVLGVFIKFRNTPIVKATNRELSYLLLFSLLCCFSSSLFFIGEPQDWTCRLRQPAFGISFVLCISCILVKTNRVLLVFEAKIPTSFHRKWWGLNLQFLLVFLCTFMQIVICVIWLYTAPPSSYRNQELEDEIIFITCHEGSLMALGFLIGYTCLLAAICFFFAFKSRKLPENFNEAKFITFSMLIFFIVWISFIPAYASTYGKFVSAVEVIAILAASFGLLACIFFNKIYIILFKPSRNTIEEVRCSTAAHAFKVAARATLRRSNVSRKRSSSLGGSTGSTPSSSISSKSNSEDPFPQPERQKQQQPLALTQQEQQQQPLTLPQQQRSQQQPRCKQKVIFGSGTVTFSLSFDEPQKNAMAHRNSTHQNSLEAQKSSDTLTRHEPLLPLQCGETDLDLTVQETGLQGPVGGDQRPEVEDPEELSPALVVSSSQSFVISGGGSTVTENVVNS
Assay: [Ca2+]i fluorescence assay in HEK 293 4.0-7 cells expressing hPCaR
Assay type: cell-based
Conditions: buffer with 1 mM CaCl2
Description: The activities of the compounds of the present invention on calcium receptors were measured. In one embodiment, the measurement was performed in accordance with the method described in Example 4 of Nemeth et al., PCT/US95/13704 (International Publication No. WO96/12697) herein incorporated by reference.
A 4.0-kb NotI-HindIII fragment of the human parathyroid cell Ca^2+ receptor (hPCaR) cDNA was subcloned into the mammalian expression vector pCEP4 (Invitrogen) containing the hygromycin-resistant gene as a selectable marker. This plasmid was transfected into HEK 293 cells by calcium phosphate precipitation. Transfected cells were grown in Dulbecco's modified Eagle's medium containing 10% fetal bovine serum and hygromycin (200 μg/mL). Hygromycin-resistant colonies were subcloned and assayed for hPCaR mRNA by solution hybridization using a ^32P-labeled RNA probe complementary to the (4.0 kb) hPCaR sequence (Garrett, et al., J. Biol. Chem. 270, 12919-12925 (1995)). Clone 7 was used to assess the effects of compounds on [Ca^2+]i. This stably transfected cell line was termed HEK 293 4.0-7. For measurements of [Ca^2+]i, the cells were recovered from tissue culture flasks by brief treatment with Versene (Invitrogen; Containing 0.2 g/L EDTA.4Na in phosphate-buffered saline) and then seeded in collagen coated 384-well plates (BD Biosciences) at 20K cells per well in the growth media (same as above). Cells were grown in 37c TC incubator overnight. Then, the media was discarded and cells were loaded with 1× dye from Ca^2+ Assay Kit I (BD Biosciences) in parathyroid cell buffer (126 mM NaCl, 4 mM KCl, 1 mM MgSO4, 0.7 mM K2HPO4/KH2PO4, 20 mM HEPES.NaOH (pH 7.45)) containing 0.5% BSA and 1 mM CaCl2. Cells were loaded at room temperature for 90 minutes. Each test compound was added to the cells and the fluorescence was recorded by using excitation and emission wavelengths of 485 and 530 nm, respectively.

Row | SMILES | EC50 [nM]
1 | CCNC(=O)CCCN(CCC(c1ccccc1)c1ccccc1)C(=O)Nc1nc2ccccc2s1 [Example 85, 3-(benzo[d]thiazol-2-yl)-1-(3,3-diphenylpropyl)-1-(4-(ethylamino)-4-oxobutyl)urea] | < 100
2 | CS(=O)(=O)Nc1ccc(-c2csc(NC(=O)N(CCC(=O)O)CCC(c3ccccc3)c3ccccc3)n2)cc1 [Example 113, 3-(1-(3,3-diphenylpropyl)-3-(4-(4-(methylsulfonamido)phenyl)thiazol-2-yl)ureido)propanoic acid] | 100 to 1000
3 | O=C(CCCN(CCC(c1ccccc1)c1ccccc1)C(=O)Nc1nc2ccccc2s1)NC1CCNCC1 [Example 75, 3-(benzo[d]thiazol-2-yl)-1-(3,3-diphenylpropyl)-1-(4-oxo-4-(piperidin-4-ylamino)butyl)urea] | < 100
4 | CC(C)(C)OC(=O)CN1CCC(NCCN(CCC(c2ccccc2)c2ccccc2)C(=O)Nc2nc3ccccc3s2)CC1 [Example 158, (4-{2-[3-Benzothiazol-2-yl-1-(3,3-diphenyl-propyl)-ureido]-ethylamino}-piperidin-1-yl)acetic acid tert-butyl ester] | 100 to 1000
5 | O=C(O)CCCN(CCC(c1ccccc1)c1ccccc1)C(=O)Nc1nc(-c2ccccc2)cs1 [Example 111, 4-(1-(3,3-diphenylpropyl)-3-(4-phenylthiazol-2-yl)ureido)butanoic acid] | 100 to 1000
6 | CC(C)(C)OC(=O)N1CCC(C(=O)NCCN(CCC(c2ccccc2)c2ccccc2)C(=O)Nc2nc3ccccc3s2)CC1 [Example 165, 4-{2-[3-Benzothiazol-2-yl-1-(3,3-diphenyl-propyl)-ureido]-ethylcarbamoyl}-piperidine-1-carboxylic acid tert-butyl ester] | 100 to 1000
7 | O=C(O)CCN(CCC(c1ccccc1)c1ccccc1)C(=O)Nc1nc2ccccc2s1 [Example 114, 3-(3-(benzo[d]thiazol-2-yl)-1-(3,3-diphenylpropyl)ureido)propanoic acid] | 100 to 1000
8 | O=C(CCCN(CCC(c1ccccc1)c1ccccc1)C(=O)Nc1nc2ccccc2s1)N[C@@H]1CCCNC1 [Example 71, (R)-3-(benzo[d]thiazol-2-yl)-1-(3,3-diphenylpropyl)-1-(4-oxo-4-(piperidin-3-ylamino)butyl)urea] | < 100
9 | O=C(CCN(CCC(c1ccccc1)c1ccccc1)C(=O)Nc1nc2ccccc2s1)NCc1ccccc1 [Example 117, 3-(benzo[d]thiazol-2-yl)-1-(3-(benzylamino)-3-oxopropyl)-1-(3,3-diphenylpropyl)urea] | 100 to 1000
10 | CN(CCN(CCC(c1ccccc1)c1ccccc1)C(=O)Nc1nc2ccccc2s1)C1CCCCC1 [Example 163, 3-Benzothiazol-2-yl-1-[2-(cyclohexyl-methyl-amino)-ethyl]-1-(3,3-diphenyl-propyl)-urea] | 100 to 1000
11 | N#Cc1ccc(-c2nc(NC(=O)N(CCCC(=O)O)CCC(c3ccccc3)c3ccccc3)sc2Cl)cc1 [Example 92, 4-(3-(5-chloro-4-(4-cyanophenyl)thiazol-2-yl)-1-(3,3-diphenylpropyl)ureido)butanoic acid] | 100 to 1000
12 | O=C(CCCN(CCC(c1ccccc1)c1ccccc1)C(=O)Nc1nc2ccccc2s1)N1CCOCC1 [Example 94, 3-(benzo[d]thiazol-2-yl)-1-(3,3-diphenylpropyl)-1-(4-morpholino-4-oxobutyl)urea] | 100 to 1000
13 | CS(=O)(=O)Nc1ccc(-c2csc(NC(=O)N(CCCC(=O)N[C@@H]3CCCNC3)CCC(c3ccccc3)c3ccccc3)n2)cc1 [Example 67, (R)-1-(3,3-diphenylpropyl)-3-(4-(4-(methylsulfonamido)phenyl)thiazol-2-yl)-1-(4-oxo-4-(piperidin-3-ylamino)butyl)urea] | < 100
14 | CN(C)C(=O)CCCN(CCC(c1ccccc1)c1ccccc1)C(=O)Nc1nc2ccccc2s1 [Example 89, 3-(benzo[d]thiazol-2-yl)-1-(4-(dimethylamino)-4-oxobutyl)-1-(3,3-diphenylpropyl)urea] | < 100
15 | O=C(O)CNCCN(CCC(c1ccccc1)c1ccccc1)C(=O)Nc1nc2ccccc2s1 [Example 161, {2-[3-Benzothiazol-2-yl-1-(3,3-diphenyl-propyl)-ureido]-ethylamino}-acetic acid] | 100 to 1000
16 | N#Cc1ccc(S(=O)(=O)NCCN(CCC(c2ccccc2)c2ccccc2)C(=O)Nc2nc3ccccc3s2)cc1 [Example 169, N-{2-[3-Benzothiazol-2-yl-1-(3,3-diphenyl-propyl)-ureido]-ethyl}-4-cyanobenzenesulfonamide] | 1000 to 5000
17 | CN(C)CC(C)(C)CNCCN(CCC(c1ccccc1)c1ccccc1)C(=O)Nc1nc2ccccc2s1 [Example 150, 3-Benzothiazol-2-yl-1-[2-(3-dimethylamino-2,2-dimethyl-propylamino)-ethyl]-1-(3,3-diphenyl-propyl)-urea trihydrochloride] | 1000 to 5000
18 | O=C(O)CCN(CCC(c1ccccc1)c1ccccc1)C(=O)Nc1nc(-c2ccccc2)cs1 [Example 126, 3-(1-(3,3-diphenylpropyl)-3-(4-phenylthiazol-2-yl)ureido)propanoic acid] | 1000 to 5000
19 | C[C@H]1CNCCN1C(=O)CCCN(CCC(c1ccccc1)c1ccccc1)C(=O)Nc1nc(-c2ccccc2)cs1 [Example 100, (S)-1-(3,3-diphenylpropyl)-1-(4-(2-methylpiperazin-1-yl)-4-oxobutyl)-3-(4-phenylthiazol-2-yl)urea] | 100 to 1000
20 | O=C(O)CN1CCC(NCCN(CCC(c2ccccc2)c2ccccc2)C(=O)Nc2nc3ccccc3s2)CC1 [Example 162, (4-{2-[3-Benzothiazol-2-yl-1-(3,3-diphenyl-propyl)-ureido]-ethylamino}-piperidin-1-yl)acetic acid] | < 100
21 | CS(=O)(=O)Nc1ccc(-c2csc(NC(=O)N(CCCC(=O)NC3CCNCC3)CCC(c3ccccc3)c3ccccc3)n2)cc1 [Example 70, 1-(3,3-diphenylpropyl)-3-(4-(4-(methylsulfonamido)phenyl)thiazol-2-yl)-1-(4-oxo-4-(piperidin-4-ylamino)butyl)urea] | < 100
22 | O=C(NCCCCN(CCC(c1ccccc1)c1ccccc1)C(=O)Nc1nc2ccccc2s1)C1CCNCC1 [Example 127, 3-(benzo[d]thiazol-2-yl)-1-(3,3-diphenylpropyl)-1-(4-(piperidine-4-carboxamido)butyl)urea] | < 100
23 | CC(CN(CCC(c1ccccc1)c1ccccc1)C(=O)Nc1nc2ccccc2s1)C(=O)O (stereo not shown) [Example 122, 3-(3-(benzo[d]thiazol-2-yl)-1-(3,3-diphenylpropyl)ureido)-2-methylpropanoic acid] | 1000 to 5000
24 | O=C(O)CCCN(CCC(c1ccccc1)c1ccccc1)C(=O)Nc1nc(-c2ccccc2)c(Cl)s1 [Example 83, 4-(3-(5-chloro-4-phenylthiazol-2-yl)-1-(3,3-diphenylpropyl)ureido)butanoic acid] | < 100
25 | CS(=O)(=O)Nc1ccc(-c2csc(NC(=O)N(CCNC(=O)C3CCCNC3)CCC(c3ccccc3)c3ccccc3)n2)cc1 (stereo not shown) [Example 130, 1-(3,3-diphenylpropyl)-3-(4-(4-(methylsulfonamido)phenyl)thiazol-2-yl)-1-(2-(piperidine-3-carboxamido)ethyl)urea] | < 100
